{"source": "paper PMC3094704", "about": "“S-Petasin, the Main Sesquiterpene of Petasites formosanus, Inhibits Phosphodiesterase Activity and Suppresses Ovalbumin-Induced Airway Hyperresponsiveness” (Evidence-based Complementary and Alternative Medicine : eCAM, 2011)", "key": {"[1]": {"molecular_target": "PDE3", "assay": "Inhibition of PDE3 activity and Lineweaver-Burk analysis", "type": "biochemical, guinea pig", "method": "Activities of PDE1–5, partially separated from guinea pig lungs and hearts according to the method described by Ko et al., were measured with a two-step procedure according to the method of Thompson and Appleman, using cAMP with [^3H]-cAMP or cGMP with [^3H]-cGMP as substrates. The enzyme pμreparation (25 μL) was incubated for 30 min at 37°C in a total assay volume of […] containing 50 mM Tris-HCl (pH 7.4), 3 mM MgCl2, 1 mM dithiothreitol, 0.05% BSA, 1 μM cAMP with 0.2 μCi [^3H]-cAMP as a substrate alone or in the presence of 0.1 units calmodulin with 10 μM CaCl2 or 5 μM cGMP, and 1 μM cGMP with 0.2 μCi [^3H]-cGMP as another substrate alone or in the presence of 0.1 units calmodulin with 10 μM CaCl2. […] The reagents and homogenate were mixed on ice, and the reaction was initiated by transferring the mixture to a water bath at 37°C. Following a 30-min incubation, the reaction was stopped by transferring the reaction vessel to a bath of boiling water for 3 min. After cooling on ice, 20 μL of a 1 mg/mL solution of C. atrox snake venom was added to the reaction mixture, and the mixture was incubated at 37°C for 10 min. Unreacted [^3H]-cAMP or [^3H]-cGMP was removed by the addition of 500 μL of a 1-in-1 Tris-HCl (40 mM) buffer suspension of Dowex resin (1 × 8-200) with incubation on ice for 30 min. Each tube was then centrifuged for 2 min at 3700 g, and 150 μL of the supernatant was removed for liquid scintillation counting. […] The total protein in each fraction used was assayed according to the method described by Bradford. The PDE activities are shown as nmol/mg/min in the Lineweaver-Burk analysis."}, "[2]": {"molecular_target": "PDE4", "assay": "Inhibition of PDE4 activity and Lineweaver-Burk analysis", "type": "biochemical, guinea pig", "method": "Activities of PDE1–5, partially separated from guinea pig lungs and hearts according to the method described by Ko et al., were measured with a two-step procedure according to the method of Thompson and Appleman, using cAMP with [^3H]-cAMP or cGMP with [^3H]-cGMP as substrates. The enzyme pμreparation (25 μL) was incubated for 30 min at 37°C in a total assay volume of […] containing 50 mM Tris-HCl (pH 7.4), 3 mM MgCl2, 1 mM dithiothreitol, 0.05% BSA, 1 μM cAMP with 0.2 μCi [^3H]-cAMP as a substrate alone or in the presence of 0.1 units calmodulin with 10 μM CaCl2 or 5 μM cGMP, and 1 μM cGMP with 0.2 μCi [^3H]-cGMP as another substrate alone or in the presence of 0.1 units calmodulin with 10 μM CaCl2. In tests of enzyme inhibition, the reaction mixture contained 10 μL of vehicle or inhibitors, at various concentrations of S-petasin or selective PDE1–5 inhibitors, such as vinpocetin [22], EHNA [23], milrinone, Ro 20-1724 [25] and zaprinast, as reference drugs. The reagents and homogenate were mixed on ice, and the reaction was initiated by transferring the mixture to a water bath at 37°C. Following a 30-min incubation, the reaction was stopped by transferring the reaction vessel to a bath of boiling water for 3 min. After cooling on ice, 20 μL of a 1 mg/mL solution of C. atrox snake venom was added to the reaction mixture, and the mixture was incubated at 37°C for 10 min. Unreacted [^3H]-cAMP or [^3H]-cGMP was removed by the addition of 500 μL of a 1-in-1 Tris-HCl (40 mM) buffer suspension of Dowex resin (1 × 8-200) with incubation on ice for 30 min. Each tube was then centrifuged for 2 min at 3700 g, and 150 μL of the supernatant was removed for liquid scintillation counting. Less than 10% of the tritiated cyclic nucleotide was hydrolyzed in this assay. The total protein in each fraction used was assayed according to the method described by Bradford. The PDE activities are shown as nmol/mg/min in the Lineweaver-Burk analysis."}}, "data": [{"smiles": "C=C(C)[C@@H]1C[C@@]2(C)C(=CC1=O)CC[C@@H](OC(=O)/C=C\\SC)[C@@H]2C", "note": "[S-Petasin]", "values": [{"measurement": "Ki", "setting": "[1]; Lineweaver-Burk analysis, cAMP substrate, read-out: Ki on PDE isozyme 3", "value": "25.3 ± 2", "unit": "µM"}, {"measurement": "Mode of inhibition of PDE3 activity", "setting": "[1]; Lineweaver-Burk analysis, S-petasin 3–30 μM, milrinone 0.3–3 μM", "value": "competitively inhibited"}, {"measurement": "IC50", "setting": "[1]; mean ± SEM (n), read-out: IC50 on PDE isozyme 3", "value": "25.5 ± 1.5", "unit": "µM"}, {"measurement": "Ki", "setting": "[2]; Lineweaver-Burk analysis, cAMP substrate, read-out: Ki on PDE isozyme 4", "value": "18.1 ± 1.7", "unit": "µM"}, {"measurement": "Mode of inhibition of PDE4 activity", "setting": "[2]; Lineweaver-Burk analysis, S-petasin 3–30 μM, Ro 20-1724 1–10 μM", "value": "competitively inhibited"}, {"measurement": "IC50", "setting": "[2]; mean ± SEM (n), read-out: IC50 on PDE isozyme 4 (taken as PDE4L value)", "value": 17.5, "unit": "µM"}]}]}
